The values that follow come from patent EP4692083A1, “NOVEL AZABICYCLE DERIVATIVES AND PHARMACEUTICAL COMPOSITION FOR INHIBITING AUTOTAXIN, COMPRISING SAME” (Nextgen Bioscience Co., Ltd., priority 2023, dated 2024).

The target in the test is human Autotaxin protein (Homo sapiens, UniProt Q13822). Nature of the test: Evaluation of the inhibitory activity against human Autotaxin protein (18:1 LysoPC substrate, choline assay kit, absorbance at 570 nm). To be noted: at 500nM compound, 2 hours at 37 °C, read-out: Inhibition rate (%, at 500nM). The format is biochemical. As to the method:
Solutions of each synthesized compound (80 uM, 100% dimethyl sulfoxide) were sequentially diluted 5-fold with dimethyl sulfoxide to prepare 6 concentrations. Each concentration of the compound was diluted 2-fold with 1x test buffer (50 mM Tris-Cl (pH 8.0), 5 mM KCl, 1 mM CaCl2, 1 mM MgCl2, 140 mM NaCl, deionized water, 1 mg/mL BSA), and 1 uL (1.25% dimethylsulfoxide) of the diluted mixture was dispensed into each well of a 96-well clear round-bottom plate. 9 uL of 1x test buffer was added, and 20 uL of 240 nM human autotaxin protein (buffer: 50 mM Tris-HCl, pH 8.0, with 150 mM sodium chloride and 20% glycerol) was added. 10 uL of sonicated 360 uM 18:1 LysoPC (diluted with 1x assay buffer) was added. The reaction was performed for 2 hours in a shaking incubator at 37 °C, and a secondary reaction mixture (choline assay kit, KA1662) (65 uL of 1x assay buffer: 1 uL of choline oxidase: 1 uL of dye probe) was prepared. 60 uL of the secondary reaction mixture was added to the plate where the reaction was performed, and incubated for 30 minutes in a shaker. The absorbance value was measured at a wavelength of 570 nm using a SpectraMax iD3 microplate reader. The percentage inhibition activity value (% inhibition) was calculated by the formula: (1 - absorbance value test group / absorbance value control group) X 100.
With `O=C(CCc1cnc(NCCc2ccc(Cl)cc2)nc1)N1C[C@@H]2[C@H](C1)[C@H]2c1cnn[nH]1` [Example 43, 1-((1R,5S,6r)-6-(1H-1,2,3-Triazol-5-yl)-3-azabicyclo[3.1.0]hexan-3-yl)-3-(2-((4-chlorophenethyl)amino)pyrimidin-5-yl)propan-1-one], the inhibition at 0.5 µM came out at 84.8%.
`FC(F)(F)c1ccccc1CNc1ncc(-c2nnc(N3C[C@@H]4[C@H](C3)[C@H]4c3cnn[nH]3)o2)cn1` [Example 22, 5-(5-((1R,5S,6r)-6-(1H-1,2,3-Triazol-5-yl)-3-azabicyclo[3.1.0]hexan-3-yl)-1,3,4-oxadiazol-2-yl)-N-(2-(trifluoromethyl)benzyl)pyrimidin-2-amine]: the inhibition at 0.5 µM is 98.4%.
As for `O=C(CCc1cnc(NC2Cc3ccccc3C2)nc1)N1C[C@@H]2[C@H](C1)[C@H]2c1cnn[nH]1` [Example 19, 1-((1R,5S,6r)-6-(1H-1,2,3-Triazol-5-yl)-3-azabicyclo[3.1.0]hexan-3-yl)-3-(2-((2,3-dihydro-1H-inden-2-yl)amino)pyrimidin-5-yl)propan-1-one], the figure is 91.9%; as for `c1ccc(Nc2ncc(-c3nnc(N4C[C@@H]5[C@H](C4)[C@H]5c4cnn[nH]4)o3)cn2)cc1` [Example 36, 5-(5-((1R,5S,6r)-6-(1H-1,2,3-Triazol-5-yl)-3-azabicyclo[3.1.0]hexan-3-yl)-1,3,4-oxadiazol-2-yl)-N-phenylpyrimidin-2-amine], 65.2%.
As for `Cc1nc(NCCc2ccc(Cl)cc2)ncc1-c1nnc(N2C[C@@H]3[C@H](C2)[C@H]3c2cnn[nH]2)o1` [Example 40, 5-(5-((1R,5S,6r)-6-(1H-1,2,3-Triazol-5-yl)-3-azabicyclo[3.1.0]hexan-3-yl)-1,3,4-oxadiazol-2-yl)-N-(4-chlorophenethyl)-4-methylpyrimidin-2-amine], the figure is 92.3%; as for `Clc1ccc(CCNc2ncc(-c3nnc(N4C[C@@H]5[C@H](C4)[C@H]5c4cnn[nH]4)o3)cn2)cc1` [Example 15, 5-(5-((1R,5S,6r)-6-(1H-1,2,3-Triazol-5-yl)-3-azabicyclo[3.1.0]hexan-3-yl)-1,3,4-oxadiazol-2-yl)-N-(4-chlorophenethyl)pyrimidin-2-amine], 94.5%; as for `c1ccc2c(c1)CC[C@@H]2Nc1ncc(-c2nnc(N3C[C@@H]4[C@H](C3)[C@H]4c3cnn[nH]3)o2)cn1` [Example 35, 5-(5-((1R,5S,6S)-6-(1H-1,2,3-Triazol-5-yl)-3-azabicyclo[3.1.0]hexan-3-yl)-1,3,4-oxadiazol-2-yl)-N-((S)-2,3-dihydro-1H-inden-1-yl)pyrimidin-2-amine], 96.8%.
Under `Clc1ccc(CNc2ncc(-c3nnc(N4C[C@@H]5[C@H](C4)[C@H]5c4cnn[nH]4)o3)cn2)cc1Cl` [Example 6, 5-(5-((1R,5S,6r)-6-(1H-1,2,3-Triazol-5-yl)-3-azabicyclo[3.1.0]hexan-3-yl)-1,3,4-oxadiazol-2-yl)-N-(3,4-dichlorobenzyl)pyrimidin-2-amine] stands 68.9%; under `N#Cc1ccc(CCNc2ncc(-c3nnc(N4C[C@@H]5[C@H](C4)[C@H]5c4cnn[nH]4)o3)cn2)cc1` [Example 33, 4-(2-((5-(5-((1R,5S,6r)-6-(1H-1,2,3-Triazol-5-yl)-3-azabicyclo[3.1.0]hexan-3-yl)-1,3,4-oxadiazol-2-yl)pyrimidin-2-yl)amino)ethyl)benzonitrile], 93.7%; under `FC(F)(F)c1ccc(CCNc2ncc(-c3nnc(N4C[C@@H]5[C@H](C4)[C@H]5c4cnn[nH]4)o3)cn2)cc1` [Example 26, 5-(5-((1R,5S,6r)-6-(1H-1,2,3-Triazol-5-yl)-3-azabicyclo[3.1.0]hexan-3-yl)-1,3,4-oxadiazol-2-yl)-N-(4-(trifluoromethyl)phenethyl)pyrimidin-2-amine], 98.4%.
Turning to `N#Cc1ccc(CNc2ncc(-c3nnc(N4C[C@@H]5[C@H](C4)[C@H]5c4cnn[nH]4)o3)cn2)cc1` [Example 24, 4-(((5-(5-((1R,5S,6r)-6-(1H-1,2,3-Triazol-5-yl)-3-azabicyclo[3.1.0]hexan-3-yl)-1,3,4-oxadiazol-2-yl)pyrimidin-2-yl)amino)methyl)benzonitrile], the inhibition at 0.5 µM turned out to be 66.3%.
As for `c1ccc(CCNc2ncc(-c3nnc(N4C[C@@H]5[C@H](C4)[C@H]5c4cnn[nH]4)o3)cn2)cc1` [Example 11, 5-(5-((1R,5S,6r)-6-(1H-1,2,3-Triazol-5-yl)-3-azabicyclo[3.1.0]hexan-3-yl)-1,3,4-oxadiazol-2-yl)-N-phenethylpyrimidin-2-amine], the figure is 85.3%; as for `Fc1cc2c(cc1F)CC(Nc1ncc(-c3nnc(N4C[C@@H]5[C@H](C4)[C@H]5c4cnn[nH]4)o3)cn1)C2` [Example 17, 5-(5-((1R,5S,6r)-6-(1H-1,2,3-Triazol-5-yl)-3-azabicyclo[3.1.0]hexan-3-yl)-1,3,4-oxadiazol-2-yl)-N-(5,6-difluoro-2,3-dihydro-1H-inden-2-yl)pyrimidin-2-amine], 96.7%; as for `Clc1ccccc1CCNc1ncc(-c2nnc(N3C[C@@H]4[C@H](C3)[C@H]4c3cnn[nH]3)o2)cn1` [Example 28, 5-(5-((1R,5S,6r)-6-(1H-1,2,3-Triazol-5-yl)-3-azabicyclo[3.1.0]hexan-3-yl)-1,3,4-oxadiazol-2-yl)-N-(2-chlorophenethyl)pyrimidin-2-amine], 96.4%.
`c1ccc2c(c1)CC(Nc1ncc(-c3nnc(N4C[C@@H]5[C@H](C4)[C@H]5c4cnn[nH]4)o3)cn1)C2` [Example 16, 5-(5-((1R,5S,6r)-6-(1H-1,2,3-Triazol-5-yl)-3-azabicyclo[3.1.0]hexan-3-yl)-1,3,4-oxadiazol-2-yl)-N-(2,3-dihydro-1H-inden-2-yl)pyrimidin-2-amine]: the inhibition at 0.5 µM was determined as 98.6%.
As for `c1ccc2c(c1)CC[C@H]2Nc1ncc(-c2nnc(N3C[C@@H]4[C@H](C3)[C@H]4c3cnn[nH]3)o2)cn1` [Example 34, 5-(5-((1R,5S,6R)-6-(1H-1,2,3-Triazol-5-yl)-3-azabicyclo[3.1.0]hexan-3-yl)-1,3,4-oxadiazol-2-yl)-N-((R)-2,3-dihydro-1H-inden-1-yl)pyrimidin-2-amine], the figure is 90.8%; as for `O=C(/C=C/c1cnc(NCCc2ccc(Cl)cc2)nc1)N1C[C@@H]2[C@H](C1)[C@H]2c1cnn[nH]1` [Example 45, (E)-1-((1R,5S,6r)-6-(1H-1,2,3-Triazol-5-yl)-3-azabicyclo[3.1.0]hexan-3-yl)-3-(2-((4-chlorophenethyl)amino)pyrimidin-5-yl)prop-2-en-1-one], 98.7%.
As for `FC(F)(F)c1cccc(CNc2ncc(-c3nnc(N4C[C@@H]5[C@H](C4)[C@H]5c4cnn[nH]4)o3)cn2)c1` [Example 21, 5-(5-((1R,5S,6r)-6-(1H-1,2,3-Triazol-5-yl)-3-azabicyclo[3.1.0]hexan-3-yl)-1,3,4-oxadiazol-2-yl)-N-(3-(trifluoromethyl)benzyl)pyrimidin-2-amine], the figure is 97.6%; as for `O=C(CCCc1cnc(NCc2cc(Cl)cc(Cl)c2)nc1)N1C[C@@H]2[C@H](C1)[C@H]2c1cnn[nH]1` [Example 44, 1-((1R,5S,6r)-6-(1H-1,2,3-Triazol-5-yl)-3-azabicyclo[3.1.0]hexan-3-yl)-4-(2-((3,5-dichlorobenzyl)amino)pyrimidin-5-yl)butan-1-one], 58.6%; as for `FC(F)(F)c1cc(CNc2ncc(-c3nnc(N4C[C@@H]5[C@H](C4)[C@H]5c4cnn[nH]4)o3)cn2)cc(C(F)(F)F)c1` [Example 10, 5-(5-((1R,5S,6r)-6-(1H-1,2,3-Triazol-5-yl)-3-azabicyclo[3.1.0]hexan-3-yl)-1,3,4-oxadiazol-2-yl)-N-(3,5-bis(trifluoromethyl)benzyl)pyrimidin-2-amine], 91.6%.
As for `c1ccc2c(c1)CC(Nc1ncc(C3CC(N4C[C@@H]5[C@H](C4)[C@H]5c4cnn[nH]4)=NO3)cn1)C2` (stereo partly drawn) [Example 50, 5-(3-((1R,5S,6r)-6-(1H-1,2,3-Triazol-5-yl)-3-azabicyclo[3.1.0]hexan-3-yl)-4,5-dihydroisoxazol-5-yl)-N-(2,3-dihydro-1H-inden-2-yl)pyrimidin-2-amine], the figure is 95.5%.
In the case of `O=C(CCc1nnc(NC2Cc3ccccc3C2)s1)N1C[C@@H]2[C@H](C1)[C@H]2c1cnn[nH]1` [Example 39, 1-((1R,5S,6r)-6-(1H-1,2,3-Triazol-5-yl)-3-azabicyclo[3.1.0]hexan-3-yl)-3-(5-((2,3-dihydro-1H-inden-2-yl)amino)-1,3,4-thiadiazol-2-yl)propan-1-one], the inhibition at 0.5 µM was found to be 59.7%.
As for `FC(F)c1ccc(CNc2ncc(-c3nnc(N4C[C@@H]5[C@H](C4)[C@H]5c4cnn[nH]4)o3)cn2)cc1` [Example 23, 5-(5-((1R,5S,6r)-6-(1H-1,2,3-Triazol-5-yl)-3-azabicyclo[3.1.0]hexan-3-yl)-1,3,4-oxadiazol-2-yl)-N-(4-(difluoromethyl)benzyl)pyrimidin-2-amine], the inhibition at 0.5 µM came out at 82.2%.
As for `Clc1ccc(CCNc2ccc(-c3nnc(N4C[C@@H]5[C@H](C4)[C@H]5c4cnn[nH]4)o3)cn2)cc1` [Example 41, 5-(5-((1R,5S,6r)-6-(1H-1,2,3-Triazol-5-yl)-3-azabicyclo[3.1.0]hexan-3-yl)-1,3,4-oxadiazol-2-yl)-N-(4-chlorophenethyl)pyridin-2-amine], the figure is 95.8%.

For orientation: inhibition means the percentage by which the read-out fell short of the control.
